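Five compound concentrations were applied to cells in 96-well plates for 48 hours; endpoints were derived by simple linear interpolation of the resulting dose-response curve. Abbreviation: GI50, concentration required for 50% inhibition of growth. TGI: concentration producing complete growth inhibition.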
Experiments:
Assay in all cases: NCI anticancer screen, dose series, 48 h
786-0 renal = test system: 786-0 renal
A498 renal = test system: A498 renal
A549 NSCLC = test system: A549 NSCLC
ACHN renal = test system: ACHN renal
BT-549 breast = test system: BT-549 breast
CAKI-1 renal = test system: CAKI-1 renal
CCRF-CEM leukemia = test system: CCRF-CEM leukemia
COLO 205 colon = test system: COLO 205 colon
DU-145 prostate = test system: DU-145 prostate
HCC-2998 colon = test system: HCC-2998 colon
HCT-116 colon = test system: HCT-116 colon
HCT-15 colon = test system: HCT-15 colon
HL-60(TB) leukemia = test system: HL-60(TB) leukemia
HOP-62 NSCLC = test system: HOP-62 NSCLC
HS 578T breast = test system: HS 578T breast
HT29 colon = test system: HT29 colon
IGROV1 ovarian = test system: IGROV1 ovarian
K-562 leukemia = test system: K-562 leukemia
KM12 colon = test system: KM12 colon
M14 melanoma = test system: M14 melanoma
MALME-3M melanoma = test system: MALME-3M melanoma
MCF7 breast = test system: MCF7 breast
MDA-MB-231 breast = test system: MDA-MB-231 breast
MDA-MB-435 = test system: MDA-MB-435
MOLT-4 leukemia = test system: MOLT-4 leukemia
NCI-H226 lung = test system: NCI-H226 lung
NCI-H23 lung = test system: NCI-H23 lung
NCI-H460 lung = test system: NCI-H460 lung
NCI-H522 lung = test system: NCI-H522 lung
NCI/ADR-RES ovarian = test system: NCI/ADR-RES ovarian
OVCAR-3 ovarian = test system: OVCAR-3 ovarian
OVCAR-4 ovarian = test system: OVCAR-4 ovarian
OVCAR-5 ovarian = test system: OVCAR-5 ovarian
OVCAR-8 ovarian = test system: OVCAR-8 ovarian
PC-3 prostate = test system: PC-3 prostate
RPMI-8226 leukemia = test system: RPMI-8226 leukemia
RXF 393 renal = test system: RXF 393 renal
SF-268 CNS = test system: SF-268 CNS
SF-295 CNS = test system: SF-295 CNS
SF-539 CNS = test system: SF-539 CNS
SK-MEL-28 melanoma = test system: SK-MEL-28 melanoma
SK-MEL-5 melanoma = test system: SK-MEL-5 melanoma
SK-OV-3 ovarian = test system: SK-OV-3 ovarian
SN12C renal = test system: SN12C renal
SNB-19 CNS = test system: SNB-19 CNS
SNB-75 CNS = test system: SNB-75 CNS
SR leukemia = test system: SR leukemia
SW-620 colon = test system: SW-620 colon
T-47D breast = test system: T-47D breast
TK-10 renal = test system: TK-10 renal
U251 CNS = test system: U251 CNS
UACC-257 melanoma = test system: UACC-257 melanoma
UACC-62 melanoma = test system: UACC-62 melanoma
UO-31 renal = test system: UO-31 renal

SMILES: COc1ccc(C(=O)c2sc3nc4c(cc3c2N)CCCC4)cc1OC
- GI50 (786-0 renal): 4.01 µM
- TGI (786-0 renal): 17 µM
- GI50 (A498 renal): 1.83 µM
- TGI (A498 renal): 9.43 µM
- GI50 (A549 NSCLC): 3.28 µM
- TGI (A549 NSCLC): 12.9 µM
- GI50 (ACHN renal): 6.58 µM
- TGI (ACHN renal): 31.3 µM
- GI50 (BT-549 breast): 2.68 µM
- TGI (BT-549 breast): 8.25 µM
- GI50 (CAKI-1 renal): 2.83 µM
- TGI (CAKI-1 renal): 13 µM
- GI50 (CCRF-CEM leukemia): 2.95 µM
- TGI (CCRF-CEM leukemia): 12.3 µM
- GI50 (COLO 205 colon): 3.33 µM
- TGI (COLO 205 colon): 10.1 µM
- GI50 (DU-145 prostate): 6.74 µM
- TGI (DU-145 prostate): 36.6 µM
- GI50 (HCC-2998 colon): 7.01 µM
- TGI (HCC-2998 colon): 30.4 µM
- GI50 (HCT-116 colon): 3.78 µM
- TGI (HCT-116 colon): 50.2 µM
- GI50 (HCT-15 colon): 2.48 µM
- TGI (HCT-15 colon): 21.2 µM
- GI50 (HL-60(TB) leukemia): 2.8 µM
- TGI (HL-60(TB) leukemia): 7.62 µM
- GI50 (HOP-62 NSCLC): 3.87 µM
- TGI (HOP-62 NSCLC): 15.3 µM
- GI50 (HS 578T breast): 4.93 µM
- TGI (HS 578T breast): 56.6 µM
- GI50 (HT29 colon): 3.08 µM
- TGI (HT29 colon): 15.9 µM
- GI50 (IGROV1 ovarian): 4.75 µM
- TGI (IGROV1 ovarian): 29.3 µM
- GI50 (K-562 leukemia): 0.946 µM
- TGI (K-562 leukemia): 40.6 µM
- GI50 (KM12 colon): 2.43 µM
- TGI (KM12 colon): 15.5 µM
- GI50 (M14 melanoma): 2.83 µM
- TGI (M14 melanoma): 11.5 µM
- GI50 (MALME-3M melanoma): 2.71 µM
- TGI (MALME-3M melanoma): 14.8 µM
- GI50 (MCF7 breast): 2.74 µM
- TGI (MCF7 breast): 10.6 µM
- GI50 (MDA-MB-231 breast): 3.74 µM
- TGI (MDA-MB-231 breast): 8.72 µM
- GI50 (MDA-MB-435): 0.723 µM
- TGI (MDA-MB-435): 5.76 µM
- GI50 (MOLT-4 leukemia): 2.62 µM
- TGI (MOLT-4 leukemia): 6.49 µM
- GI50 (NCI-H226 lung): 3.5 µM
- TGI (NCI-H226 lung): 23 µM
- GI50 (NCI-H23 lung): 2.64 µM
- TGI (NCI-H23 lung): 9.94 µM
- GI50 (NCI-H460 lung): 3.22 µM
- TGI (NCI-H460 lung): 13.2 µM
- GI50 (NCI-H522 lung): 1.52 µM
- TGI (NCI-H522 lung): 5.53 µM
- GI50 (NCI/ADR-RES ovarian): 2.04 µM
- TGI (NCI/ADR-RES ovarian): 6.67 µM
- GI50 (OVCAR-3 ovarian): 3.91 µM
- TGI (OVCAR-3 ovarian): 24.4 µM
- GI50 (OVCAR-4 ovarian): 3.48 µM
- TGI (OVCAR-4 ovarian): 18.6 µM
- GI50 (OVCAR-5 ovarian): 14.1 µM
- TGI (OVCAR-5 ovarian): 48.5 µM
- GI50 (OVCAR-8 ovarian): 2.83 µM
- TGI (OVCAR-8 ovarian): 9.88 µM
- GI50 (PC-3 prostate): 2.97 µM
- TGI (PC-3 prostate): 15 µM
- GI50 (RPMI-8226 leukemia): 2.31 µM
- TGI (RPMI-8226 leukemia): 8.01 µM
- GI50 (RXF 393 renal): 3.41 µM
- TGI (RXF 393 renal): 24.2 µM
- GI50 (SF-268 CNS): 5.56 µM
- TGI (SF-268 CNS): 34.6 µM
- GI50 (SF-295 CNS): 3.06 µM
- TGI (SF-295 CNS): 13.5 µM
- GI50 (SF-539 CNS): 3.83 µM
- TGI (SF-539 CNS): 25.7 µM
- GI50 (SK-MEL-28 melanoma): 2.95 µM
- TGI (SK-MEL-28 melanoma): 14.8 µM
- GI50 (SK-MEL-5 melanoma): 1.87 µM
- TGI (SK-MEL-5 melanoma): 4.92 µM
- GI50 (SK-OV-3 ovarian): 10 µM
- TGI (SK-OV-3 ovarian): 47.6 µM
- GI50 (SN12C renal): 4.18 µM
- TGI (SN12C renal): 48.5 µM
- GI50 (SNB-19 CNS): 7.06 µM
- TGI (SNB-19 CNS): > 100 µM
- GI50 (SNB-75 CNS): 2.79 µM
- TGI (SNB-75 CNS): 9.93 µM
- GI50 (SR leukemia): 1.59 µM
- TGI (SR leukemia): 17.8 µM
- GI50 (SW-620 colon): 4.15 µM
- TGI (SW-620 colon): 26.9 µM
- GI50 (T-47D breast): 2.65 µM
- TGI (T-47D breast): 8.95 µM
- GI50 (TK-10 renal): 4.77 µM
- TGI (TK-10 renal): 26.5 µM
- GI50 (U251 CNS): 3.03 µM
- TGI (U251 CNS): 16.2 µM
- GI50 (UACC-257 melanoma): 3.81 µM
- TGI (UACC-257 melanoma): 14.9 µM
- GI50 (UACC-62 melanoma): 1.99 µM
- TGI (UACC-62 melanoma): 6.8 µM
- GI50 (UO-31 renal): 3.04 µM
- TGI (UO-31 renal): 13.8 µM
